Activity calls are given as the source filed them.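 How the source made its calls: active means plate Z score at or below -3, or inhibition of at least 30% at 20 µM; inactive means the rest.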
Assay: EGFP reporter destabilization counter-screen – F442A EGFP cells, fluorescence, counter-screen for p/CIP destabilizer project, dose response (AID 2005);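 further: cells express EGFP alone from a CMV promoter as a counter screen for p/CIP-EGFP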
Conditions: F442A EGFP cells, EGFP fluorescence, 16 h, stronger effect = higher value

Row | Compound | inhibition (EGFP decrease, at 10 µM) | inhibition (at 20 µM)
1 | CCOc1ccc(NC(=O)/C(=C\c2ccc(OC(C)=O)c(OC)c2)NC(C)=O)cc1 | 1.3% | -16.6% (inactive)
2 | CC(=O)c1ccc(NC(=O)NNS(=O)(=O)c2ccc([N+](=O)[O-])cc2)cc1 | 16.8% | 22.1% (inactive)
3 | Cc1ccc(NC2CCCN(C(=O)c3ccccc3-c3ncc[nH]3)C2)cc1C (configuration not stated) | -12.3% | 21.4% (inactive)
4 | CC(=O)c1ccc(OCc2cc(C(=O)NC3CCCCC3)no2)cc1 | 15.2% | 9.5% (inactive)
5 | CC1CC(C)CN(C(=O)c2ccc3c(c2NCCO)C(=O)c2ccccc2C3=O)C1 (configuration not stated) | 12.8% | 7.9% (inactive)
6 | O=C(O)c1ccc(NC2=C/C(=N/S(=O)(=O)c3ccccc3)c3ccccc3C2=O)cc1 | 38.1% | 41.2%
7 | Cc1nc(NC(=O)CN2CCN(c3ccccc3F)CC2)sc1C(=O)N(C)C | 17% | 24.4% (inactive)
8 | CCCCN(CCCC)CCCNC(=O)C12CN(Cc3ccccc3)CC1C(c1cccc([N+](=O)[O-])c1)=NO2 (configuration not stated) | 20.1% | -9.9% (inactive)
9 | O=C(Nc1ccc(N2CCOCC2)cc1N1CCOCC1)c1ccc(Br)cc1 | 32.7% | 19.4% (inactive)
10 | Cn1c(O)c(C=NC2CCCCCC2)c(=O)[nH]c1=S | 0.3% | 7.6% (inactive)
11 | N#C/C(=C\c1cccnc1)C(=O)Nc1ccccc1[N+](=O)[O-] | 27.7% | 2% (inactive)
12 | CC(C)(C)n1nc2c(c1NC(=O)c1cc(Cl)ccc1[N+](=O)[O-])CS(=O)(=O)C2 | 10.5% | 22.6% (inactive)
13 | CCC(CC)NC(=O)COC(=O)CCC(=O)c1ccc(Cl)cc1 | 5.2% | 24.9% (inactive)
14 | CCc1ccc(CN2CCC(n3nccc3NC(=O)c3ccccc3C)CC2)cc1 | 22.7% | -0.4% (inactive)
15 | CCCc1nnc(NC(=O)C2CCN(C(=O)C3CC(=O)N(c4ccc(C)cc4)C3)CC2)s1 (configuration not stated) | 13.9% | 14.4% (inactive)
16 | CSCCC(CO)NC(=O)OCc1ccccc1 (configuration not stated) | 10.8% | -23.3% (inactive)
17 | Cn1c(NC(=O)c2cccnc2)nc2ccccc21 | -33.6% | -0.5% (inactive)
18 | Cc1cc(C)n(/N=C/c2ccccc2O)c(=O)c1 | 20.8% | 9.9% (inactive)
19 | C/C(N)=C(/C#N)C(=O)CSc1nnnn1-c1ccc(C)cc1C | 18% | 3.2% (inactive)
20 | CCOc1ccc(-c2c[n+]3c(n2-c2ccccc2)CCCCC3)cc1 | 32.2% | 51.3%
21 | COc1ccc(NC(=O)N2CCn3c2nc2ccccc23)cc1 | 17.9% | 30.9%

Row | Compound | inhibition (EGFP decrease, at 10 µM) | inhibition (at 20 µM)
22 | O=c1c(Br)c(Br)cnn1-c1ccccc1 | 14.6% | 29.7% (inactive)
23 | CC(C)=CC(=O)Nc1ccccc1Br | 26.1% | 12.9% (inactive)
24 | Nc1cc(=O)[nH]c(SCC(=O)Nc2cccnc2Cl)n1 | 18.4% | -7.6% (inactive)
25 | O=C(N/N=C\c1ccc2c(c1)OCO2)c1cncc(Br)c1 | 6.5% | 7.3% (inactive)
26 | CCN1C(=O)OC2(CCCCC2)C1(C)O (configuration not stated) | -1.9% | 9% (inactive)
27 | COc1ccc(OC)c(Nc2ncnc3c2cnn3-c2ccccc2)c1 | 17.8% | 9.9% (inactive)
28 | CCOc1ccc(C(=O)N2CCc3cc(OC)c(OC)cc3C2)cc1OCC | 9.7% | 4.7% (inactive)
29 | Fc1ccc(CNCCc2ccccc2)cc1 | 21.5% | -9.1% (inactive)
30 | CC1(C)OC(=O)C(=CNC(CCC(N)=O)C(=O)O)C(=O)O1 (configuration not stated) | -1.3% | 15.1% (inactive)
31 | O=C(c1ccco1)N1CCN(C(=O)c2ccccc2[N+](=O)[O-])CC1 | 10.5% | 11.1% (inactive)
32 | COc1ccc2[nH]c(=O)c(-c3noc(-c4ccccc4)n3)cc2c1 | 22.9% | 9.8% (inactive)
33 | CCN1C(=O)/C(=C2\C=Cc3cc(C)ccc3N2CC)OC1=S | -35.7% | -30.8% (inactive)
34 | CCc1cc2c(=O)c(-c3cscn3)coc2cc1O | -1.7% | -28% (inactive)
35 | O=C(Nc1nc(-c2ccccc2)cs1)C1CCCCN1S(=O)(=O)c1ccccc1 (configuration not stated) | 15% | 8.6% (inactive)
36 | Cc1ccc(NC(=O)C(NS(=O)(=O)c2cccc3nsnc23)C(C)C)nc1 (configuration not stated) | 34.6% | 21.7% (inactive)
37 | COc1ccccc1N1CCN(C(=O)C(CC(C)C)NC(=O)C2CCCCC2)CC1 (configuration not stated) | -31.4% | 6% (inactive)
38 | CCCCC(=O)NNC(=S)NC(=O)CCC | 8.3% | 15.7% (inactive)
39 | Cc1ccc(OCC(=O)N2CCN(C(=O)c3ccco3)CC2)cc1 | 23.1% | 8.2% (inactive)
40 | CSCCC(NC(=O)C1CCC(C)CC1)C(=O)Nc1ccc(NC(C)=O)cc1 (configuration not stated) | 24.8% | 18.5% (inactive)
41 | Cc1cc2c(c(Sc3ccccc3)n1)C(=O)OC2 | -4% | -3.5% (inactive)
42 | CCN1CCN(CCNC(=O)Nc2ccc([N+](=O)[O-])cc2)CC1 | -0.7% | 6.6% (inactive)

Row | Compound | inhibition (EGFP decrease, at 10 µM) | inhibition (at 20 µM)
43 | CC1CC(C)CN(c2ccc(NS(=O)(=O)c3ccccc3)cc2C(=O)O)C1 (configuration not stated) | 9.8% | 2.9% (inactive)
44 | Cc1ccc(C2C(C#N)=C(N)Oc3cc4c(cc32)OCO4)cc1 (configuration not stated) | 15.9% | 18.9% (inactive)
45 | CCOC(=O)CCc1c(C)c2ccc(OCC(=O)N(CC)CC)c(C)c2oc1=O | 19.9% | 8.8% (inactive)
46 | Cc1ccccc1Cn1c(C)nc2ccccc21 | 29.8% | 39%
47 | COC(=O)CSc1[nH]c(=O)cc(C)c1C#N | 26.6% | 49.5%
48 | O=C(NNS(=O)(=O)c1ccc(F)cc1)C1CCN(S(=O)(=O)c2ccccc2)CC1 | -22.3% | -6.1% (inactive)
49 | O=C(CN1CCN(Cc2ccccc2Cl)C1=O)NCc1ccco1 | 17.1% | 31.5%
50 | C=CCn1c(SCCN2C(=O)c3ccccc3C2=O)nc2scc(-c3ccccc3)c2c1=O | 30.3% | 0.6% (inactive)
51 | CCOC(=O)C(C)On1c(-c2ccccc2)nc2ccc([N+](=O)[O-])cc21 (configuration not stated) | 5.1% | 25% (inactive)
52 | Cc1cc(C)n2nc(SCC(=O)c3ccccc3)nc2n1 | 23.7% | 31%
53 | O=C(c1cc(-c2ccccc2)on1)N1CCN(C(=O)c2ccco2)CC1 | 18.5% | 4.9% (inactive)
54 | COc1ccc2[nH]cc(CC(=O)O)c2c1 | 39.2% | 23.6% (inactive)
55 | CC(C)CCN1C(=O)c2ccc(C(=O)NCC3CCCO3)cc2C1=O (configuration not stated) | 8.4% | 3.8% (inactive)
56 | N#Cc1cn(CC(=O)NCCc2c[nH]c3ccccc23)c2ccccc12 | 10.9% | -0.3% (inactive)
57 | CC(=O)c1c(N2CCN(Cc3ccc4c(c3)OCO4)CC2)nc(=S)n(-c2ccccc2)c1C | 7.3% | 23.7% (inactive)
58 | CCOC(=O)c1c(C)n(C)c2cc(OCCN(CC)CC)ccc12 | -6% | 8.6% (inactive)
59 | CC(=O)Nc1ccc(S(=O)(=O)NCc2cn3ccsc3n2)cc1 | 8.3% | 1% (inactive)
60 | Cc1cccc(C)c1NC(=O)c1ccccc1C(=O)O | 18.1% | 20.4% (inactive)
61 | COc1ccc(CNC2CCCCC2)cc1 | 26% | 20.4% (inactive)
62 | CC(C)(C)c1cc(Cc2ccccc2)[nH]n1 | -3.7% | 35.1%
63 | COc1ccc(CNCCCSc2ncccn2)c(OC)c1 | 11.1% | 16.3% (inactive)

Row | Compound | inhibition (EGFP decrease, at 10 µM) | inhibition (at 20 µM)
64 | N#CCSCC(=O)Nc1ccc(F)cc1 | 4.7% | 4% (inactive)
65 | Cn1nc(-c2ccccn2)nc2c(=O)n(C)c(=O)nc1-2 | 61.5% | 45.6%
66 | Cc1ccc(S(=O)(=O)CCC(=O)OCC(=O)c2c[nH]c3ccccc23)cc1 | 10.1% | 19.8% (inactive)
67 | O=C(NCc1ccncc1)c1cc(C(=O)C2CCCCC2)c[nH]1 | -25% | 31.5%
68 | COc1cccc(NC(=O)N2CCC(NC(=O)C3CCCCC3)CC2)c1 | 13.5% | 8% (inactive)
69 | CC(=O)c1ccc2c(c1)OCO2 | 5.1% | 25.1% (inactive)
70 | CC(=O)Nc1ccc(NC2=C(Cl)C(=O)c3ccccc3C2=O)cc1 | 3% | 0.6% (inactive)
71 | O=c1c2ccccc2[nH]c2ccccc12 | 13.8% | 18.3% (inactive)
72 | Cc1cc(/N=C/N(C)C)on1 | 20.8% | -23.7% (inactive)
73 | CC(OC(=O)c1cccc(-n2cnnn2)c1)C(=O)N(C)c1ccccc1 (configuration not stated) | 23.3% | 6% (inactive)
74 | CCOc1ccc(NC(=O)CSc2nc3ccccc3c(=O)n2CCNC(C)=O)cc1 | 13.6% | 15% (inactive)
75 | Cc1ccc(NC2=NC3(CCCCC3)N=C(N)N2)c(C)c1 | 32.9% | 41.8%
76 | CCOC(=O)CSC1=Nc2ccccc2C2=NC(CC(=O)NCc3ccc4c(c3)OCO4)C(=O)N12 (configuration not stated) | -26.1% | 3.9% (inactive)
77 | CC1CCCCC1NC(=O)CN1C(=O)c2ccccc2S1(=O)=O (configuration not stated) | -11.2% | 13.6% (inactive)
78 | Nc1cnn(C2OC(CO)C(O)C2O)c(=O)n1 (configuration not stated) | 18.6% | 22.1% (inactive)
79 | O=C(Nc1nc2nc(-c3ccccc3)cc(-c3ccccc3)n2n1)c1ccco1 | 4.8% | 5.5% (inactive)
80 | COc1cc(CNCCCO)ccc1OCC(=O)NC(C)(C)C | -2.3% | 22.9% (inactive)
81 | COc1ccccc1CNC(=O)CCCC(=O)n1ncc2cc(C)ccc21 | -25.7% | 20.2% (inactive)
